Reference: paper PMC11078746 (Nature, 2024)
“And” between values parts separate entries of the source, which are not always exact repeats. Equal values may be shown once.

Columns and labels:
[1] = Mouse body weight, SW48 xenograft study with HRO761; assay type: in vivo; set-up: Body weight change, individual animals / Body weight change, group mean: unit not given here; conditions: for Body weight change, group mean / Body weight change, individual animals: SW48 xenograft-bearing mice
Protocol: (§1) All animal studies were conducted in accordance with ethics and procedures covered by permit BS-2275 and BS-1975 issued by the Kantonales Veterinäramt Basel-Stadt and in strict adherence to guidelines of the Eidgenössisches Tierschutzgesetz and the Eidgenössische Tierschutzverordnung, Switzerland. All animal studies were approved by the internal ethics committee. All animals had access to food and water ad libitum and were identified with transponders. They were housed in a specific-pathogen-free facility in IVC racks under a 12 h–12 h light–dark cycle. To establish cell-line-derived xenograft models, 6–7-week-old female athymic nude (Crl:NU(NCr)-Foxn1^nu) or SCID-BEIGE (CB17.Cg-PrkdcscidLystbg-J/Crl) mice from Charles River were engrafted subcutaneously with 5 million tumour cells in HBSS (H6648, Sigma-Aldrich). For SNU-407, Lovo, IM95, RL95.2, Ishikawa and IGROV-1, the cells were concentrated in 50% Matrigel (354234, Corning). Patient-derived xenografts were induced and expanded by transplantation as previously described. […] For the efficacy experiment, mice were randomized into groups (n = 5–6) for a mean tumour size of 100–150 mm^3. […] Blood samples were collected on day 7 and 91. […] Tumour responses are reported with the measures of tumour volumes from the treatment start. […] Animals were randomized (n = 3) and tumour samples were collected at 0, 1, 4, 8 and 24 h on the first day and then collected 4 h after the last treatment on day 3, 8, 10, 14 (including a 24 h timepoint), 17 and 21. Tumours were excised, weighed, either frozen in liquid nitrogen and cryogenic dry pulverized with the CryoPrep system (model CP-02, Covaris) or processed to FFPE after fixation. […] On day 12, blood samples were collected for PK analysis. On the last day (3 h after the last treatment), tumours were excised, weighed, frozen in liquid nitrogen and cryogenic dry pulverized for PD analysis.

[2] = system: EN; experiment: CFA 10-14 day clonogenic assay; assay type: cell-based; conditions: Homo sapiens
[3] = system: RL95.2 xenograft; experiment: MSI xenograft model efficacy; assay type: in vivo, mouse; conditions: RL95.2, Endometrial carcinoma; 60 or 120 mg/kg
Protocol: as §1

[4] = system: IGROV1 xenograft; experiment: MSI xenograft model efficacy; assay type: in vivo, mouse; conditions: IGROV1, Ovarian carcinoma; 60 or 120 mg/kg
Protocol: as §1

[5] = HRO761 120mg/kg, day 0 post 1st dose

For `CCc1c(N2CCN(C(=O)c3ncnc(C)c3O)CC2)c(=O)n2nc(C3=CCOCC3)nc2n1CC(=O)Nc1ccc(C(F)(F)F)cc1Cl` [HRO761], the “Mean DBW” value ([1]; HRO761 60mg/kg, day 31 post 1st dose) was 5.38%, the “Mean DBW” value ([1]; HRO761 60mg/kg, day 35 post 1st dose) was 4.36% and the “Mean DBW” value ([1]; HRO761 60mg/kg, day 38 post 1st dose) was 2.35%. The “Mean DBW” value ([1]; HRO761 60mg/kg, day 42 post 1st dose) was 3.45%, the “Mean DBW” value ([1]; HRO761 60mg/kg, day 45 post 1st dose) was 2.45% and the “Mean DBW” value ([1]; HRO761 60mg/kg, day 49 post 1st dose) was 3.51%. For the same molecule, the “Mean DBW” value ([1]; HRO761 60mg/kg, day 52 post 1st dose) was 2.35%, the “Mean DBW” value ([1]; HRO761 60mg/kg, day 56 post 1st dose) was 2.93% and the “Mean DBW” value ([1]; HRO761 60mg/kg, day 59 post 1st dose) was 4.86%. For the same molecule, the “Mean DBW” value ([1]; HRO761 60mg/kg, day 63 post 1st dose) was 4.98%, the “Mean DBW” value ([1]; HRO761 60mg/kg, day 66 post 1st dose) was 5.96% and the “Mean DBW” value ([1]; HRO761 60mg/kg, day 70 post 1st dose) was 5.36%. For the same molecule, the “Mean DBW” value ([1]; HRO761 60mg/kg, day 73 post 1st dose) was 5.45%, the “Mean DBW” value ([1]; HRO761 60mg/kg, day 76 post 1st dose) was 8.05% and the “Mean DBW” value ([1]; HRO761 60mg/kg, day 79 post 1st dose) was 6.02%. For the same molecule, the “Mean DBW” value ([1]; HRO761 60mg/kg, day 83 post 1st dose) was 6.63%, the “Mean DBW” value ([1]; HRO761 60mg/kg, day 86 post 1st dose) was 7.71% and the “Delta BW change, individual mouse” value [1, 5] was 0%. For the same molecule, the “Mean DBW” value [1, 5] was 0.00%, the “Mean DBW” value ([1]; HRO761 120mg/kg, day 3 post 1st dose) was -2.05% and the “Delta BW change, individual mouse” value ([1]; HRO761 120mg/kg, day 3 post 1st dose, 120 mg/kg) was -1.24% and 0% and -5.24% and -5.96% and 2.18%. The “Mean DBW” value ([1]; HRO761 120mg/kg, day 7 post 1st dose) was 0.64%, the “Delta BW change, individual mouse” value ([1]; HRO761 120mg/kg, day 7 post 1st dose, 120 mg/kg) was 0% (2×) and 3.8% and -3.23% and 2.62% and the “Mean DBW” value ([1]; HRO761 120mg/kg, day 10 post 1st dose) was 0.034%. For the same molecule, the “Delta BW change, individual mouse” value ([1]; HRO761 120mg/kg, day 10 post 1st dose, 120 mg/kg) was 2.07% and 3.8% and -2.42% and -4.59% and 1.31%, the “Mean DBW” value ([1]; HRO761 120mg/kg, day 14 post 1st dose) was 1.43% and the “Delta BW change, individual mouse” value ([1]; HRO761 120mg/kg, day 14 post 1st dose, 120 mg/kg) was 4.15% and 4.56% and -2.82% and -0.92% and 2.18%. The “Mean DBW” value ([1]; HRO761 120mg/kg, day 17 post 1st dose) was 1.14%, the “Mean DBW” value ([1]; HRO761 120mg/kg, day 21 post 1st dose) was 5.29% and the “Mean DBW” value ([1]; HRO761 120mg/kg, day 24 post 1st dose) was 6.66%. For the same molecule, the “Mean DBW” value ([1]; HRO761 120mg/kg, day 28 post 1st dose) was 5.89%, the “Mean DBW” value ([1]; HRO761 120mg/kg, day 31 post 1st dose) was 6.52% and the “Mean DBW” value ([1]; HRO761 120mg/kg, day 35 post 1st dose) was 7.34%. For the same molecule, the “Mean DBW” value ([1]; HRO761 120mg/kg, day 38 post 1st dose) was 4.89%, the “Mean DBW” value ([1]; HRO761 120mg/kg, day 42 post 1st dose) was 6.61% and the “Mean DBW” value ([1]; HRO761 120mg/kg, day 45 post 1st dose) was 7.02%. For the same molecule, the “Mean DBW” value ([1]; HRO761 120mg/kg, day 49 post 1st dose) was 8.54%, the “Mean DBW” value ([1]; HRO761 120mg/kg, day 52 post 1st dose) was 5.69% and the “Mean DBW” value ([1]; HRO761 120mg/kg, day 56 post 1st dose) was 7.31%. For the same molecule, the “Mean DBW” value ([1]; HRO761 120mg/kg, day 59 post 1st dose) was 8.08%, the “Mean DBW” value ([1]; HRO761 120mg/kg, day 63 post 1st dose) was 9.90% and the “Mean DBW” value ([1]; HRO761 120mg/kg, day 66 post 1st dose) was 9.60%. For the same molecule, the “Mean DBW” value ([1]; HRO761 120mg/kg, day 70 post 1st dose) was 9.57%, the “Mean DBW” value ([1]; HRO761 120mg/kg, day 73 post 1st dose) was 7.95% and the “Mean DBW” value ([1]; HRO761 120mg/kg, day 76 post 1st dose) was 11.43%. The “Mean DBW” value ([1]; HRO761 120mg/kg, day 79 post 1st dose) was 9.25%, the “Mean DBW” value ([1]; HRO761 120mg/kg, day 83 post 1st dose) was 10.23% and the “Mean DBW” value ([1]; HRO761 120mg/kg, day 86 post 1st dose) was 9.35%. For the same molecule, the “Body weight change, group mean” value ([1]; HRO761 40mg/kg, day 90 post 1st dose) was 13.42, the “Body weight change, individual animals” value ([1]; HRO761 40mg/kg, day 90 post 1st dose, 40 mg/kg) was 12.73 and 18.18 and 7.58 and 10.23 and 18.39 and the “Body weight change, group mean” value ([1]; HRO761 40mg/kg, day 92 post 1st dose) was 10.60. For the same molecule, the “Body weight change, individual animals” value ([1]; HRO761 40mg/kg, day 92 post 1st dose, 40 mg/kg) was 10.45 and 10.82 and 5.05 and 12.5 and 14.18, the “Body weight change, group mean” value ([1]; HRO761 60mg/kg, day 90 post 1st dose) was 7.89 and the “Body weight change, individual animals” value ([1]; HRO761 60mg/kg, day 90 post 1st dose, 60 mg/kg) was 7.66 and 9.39 and 10.88 and 1.67 and 9.83. The “Body weight change, group mean” value ([1]; HRO761 60mg/kg, day 92 post 1st dose) was 5.46, the “Body weight change, individual animals” value ([1]; HRO761 60mg/kg, day 92 post 1st dose, 60 mg/kg) was 5.11 and 6.53 and 6.69 and 0.42 and 8.55 and the “Body weight change, group mean” value ([1]; HRO761 120mg/kg, day 90 post 1st dose) was 10.59. The “Body weight change, individual animals” value ([1]; HRO761 120mg/kg, day 90 post 1st dose, 120 mg/kg) was 9.96 and 14.07 and 7.66 and 5.96 and 15.28, the “Body weight change, group mean” value ([1]; HRO761 120mg/kg, day 92 post 1st dose) was 7.50 and the “Body weight change, individual animals” value ([1]; HRO761 120mg/kg, day 92 post 1st dose, 120 mg/kg) was 5.81 and 9.13 and 4.84 and 5.5 and 12.23. For the same molecule, the “toxicity inferred from animal weight” value ([1]; doses up to 120 mg per kg) was “did not cause toxicity”, the GI50 [2] was no less than 10 µM and the Best average response [3] was -66. The Best average response [4] was -38.
